Test results taken from patent US7772240B2, “Trans-1(6-chloro-3-phenylindan-1-yl)-3,3-dimethylpiperazine” (H. Lundbeck A/S, priority 2003, dated 2010).

Legend:
human CYP2D6 = biological target: T1, human CYP2D6 (Homo sapiens, UniProt P10635); test: CYP2D6 inhibitor assay (recombinant microsomes, AMMC substrate); format: in vitro ADME; settings: result in words
T1 construct: purchased BD Biosciences (Gentest) 456217; host or cells: baculovirus/insect cells
Description: Principle: The inhibition of human CYP2D6 is assessed using microsomes prepared from baculovirus/insect cells cDNA expressing CYP2D6 as enzyme sources and the specific CYP2D6 substrate AMMC (3-[2-(N,N-diethyl-N-methylammonium)-ethyl]-7-methoxy-4-methylcoumarin). AMMC is O-demethylated to AHMC (3-[2-(N,N-diethylamino)ethyl]-7-hydroxy-4-methylcoumarin) which is detected by measuring appearance of fluorescence.
Microsomes prepared from baculovirus/insect cells cDNA expressing CYP2D6 were obtained from BD Biosciences (Gentest 456217). Fluorescence measured Ex. (405 nm) Em. (465 nm) by a SpectroFluor Plus Plate Reader (Tecan Nordic). Incubations with the recombinant CYP2D6 micrsomes contained 1.5 pmol of the recombinant CYP2D6 in 0.2 ml total volume 100 mM phosphate buffer at pH 7.4 containing […] AMMC (3-[2-(N,N-diethyl-N-methylammonium)-ethyl]-7-methoxy-4-methylcoumarin) with a low NADPH-regenerating system consisting of 0.0082 mM NADP^+, 0.41 mM glucose 6-phosphate, 0.41 mM magnesium chloride and 0.4 units/ml glucose-6-phoshate dehydrogenase. The incubation time was 45 min and the incubations were quenched by addition of 0.075 ml 80% Acetonitrile 20% 0.5 M Tris base. All chemicals were of analytical grade from Sigma (St. Louis, Mo.). […] The IC50 values were calculated by linear interpolation.

D1 and D2 = settings: cited from earlier work
α1 adrenoceptors = settings: cited from earlier work
D1/D2 = settings: cited from earlier work
5-HT2 = settings: cited from earlier work
human D2 receptor [1] = biological target: T2, human D2 receptor (Homo sapiens, UniProt P14416); test: DA D2 receptor binding ([3H]-Spiperone)
T2 construct: expressed in transfected cells; host or cells: CHO cells
Description: (§1) For all assays: Results are expressed as percent inhibition of control specific binding and the IC50 values (concentration causing a half-maximal inhibition of control specific binding) are determined by non-linear regression analysis using Hill equation curve fitting. The inhibition constants (Ki) were calculated from the Cheng Prusoff equation Ki=IC50/(1+(L/KD)), where L equals the concentration of radioligand in the assay) and KD equals the affinity of the radioligand for the receptor.
CHO cells expressing approximately 800 fmol/mg human recombinant D2 receptors were generated standard stable transfection techniques. […] Total binding was determined in the presence of buffer and non-specific binding was determined in the presence of 10 μM haloperidol. The mixture was incubated for 30 minutes at 37° C., cooled briefly on ice. Bound and free radioactivity was separated by vacuum filtration on GF/C filters pretreated with 0.1% Polyetyleneime (PEI) and filters were counted in a scintillation counter.

alpha-1 adrenoceptors = test: Alpha-1 adrenoceptor binding ([3H]Prazosin); set-up: species or system rat
Description: as §1
Chinese hamster ovary (CHO) cell lines expressing rat alpha1d and Baby hamster Kidney (BHK) cells expressing bovine alpha1a were generated using standard stable transfection techniques. The Rat-1 cell line expressing the hamster alpha1b receptor was obtained from University of Utah, Salt Lake City, Utah. […] Total binding was determined using assay buffer and non-specific binding was defined in the presence of 1 μM WB-4101 for all subtypes of alpha1 receptors. […] In all assays bound and free radioactivity were separated by vacuum filtration on GF/B filters pretreated with Polyetyleneimine (PEI) and counted in a scintillation counter.
By this method, the inhibition by drugs of the binding of [^3H]Prazosin (0.25 nM) to alpha-1 receptors in membranes from rat brain is determined in vitro. […]

human D1 receptors [2] = biological target: T3, human D1 receptors (Homo sapiens, UniProt P21728); test: DA D1 efficacy assay, inhibition of D1 mediated cAMP formation in CHO cells; format: cell-based; set-up: expressed in transfected cells; host or cells: CHO cell line generated in-house
Description: The ability of the compounds to inhibit the D1 receptor mediated cAMP formation in a CHO cell line generated in-house stably expressing the human recombinant D1 receptor was measured as follows. Cells were seeded in 96-well plates at a concentration of 11000 cells/well 3 days prior to the experiment. On the day of the experiment the cells were washed once in preheated G buffer (1 mM MgCl2, 0.9 mM CaCl2, 1 mM IBMX in PBS) and the assay was initiated by addition of 100 μl of a mixture of 30 nM A68930 and test compound diluted in G buffer. The cells were incubated for 20 minutes at 37° C. and the reaction was stopped by the addition of 100 μl S buffer (0.1 M HCl and 0.1 mM CaCl2) and the plates were placed at 4° C. for 1 hour. 68 μl N buffer (0.15 M NaOH and 60 mM NaAc) was added and the plates were shaken for 10 minutes. 60 μl of the reaction were transferred to cAMP FlashPlates (DuPont NEN) containing 40 μl 60 mM NaAc pH 6.2 and 100 μl IC mix (50 mM NaAc pH 6.2, 0.1% NaAzid, 12 mM CaCl2, 1% BSA and 0.15 μCi/ml ^125I-cAMP) were added. Following an 18-hour incubation at 4° C. the plates were washed once and counted in a Wallac TrLux counter.

human D2 receptor [3] = biological target: T2, human D2 receptor; test: DA D2 efficacy assay, inhibition of D2 mediated inhibition of cAMP formation in CHO cells; format: cell-based
Description: The ability of the compounds to inhibit the D2 receptor mediated inhibition of cAMP formation in CHO cells transfected with the human D2 receptor was measure as follows.
Cells were seeded in 96 well plates at a concentration of 8000 cells/well 3 days prior to the experiment. On the day of the experiment the cells were washed once in preheated G buffer (1 mM MgCl2, 0.9 mM CaCl2, 1 mM IBMX in PBS) and the assay was initiated by addition of 100 μl of a mixture of 1 μM quinpirole, 10 μM forskolin and test compound in G buffer. The cells were incubated 20 minutes at 37° C. and the reaction was stopped by the addition of 100 μl S buffer (0.1 M HCl and 0.1 mM CaCl2) and the plates were placed at 4° C. for 1 hour. 68 μl N buffer (0.15 M NaOH and 60 mM NaAc) were added and the plates were shaken for 10 minutes. 60 μl of the reaction were transferred to cAMP FlashPlates (DuPont NEN) containing 40 μl 60 mM NaAc pH 6.2 and 100 μl IC mix (50 mM NaAc pH 6.2, 0.1% NaAzid, 12 mM CaCl2, 1% BSA and 0.15 μCi/ml ^125I-cAMP) were added. Following an 18-hour incubation at 4° C. the plates were washed once and counted in a Wallac TriLux counter.

human D1 receptors [4] = biological target: T3, human D1 receptors; test: DA D1 receptor binding ([3H]-SCH23390, Cerep); set-up: host or cells: CHO cells (membranes)
Description: For all assays: Results are expressed as percent inhibition of control specific binding and the IC50 values (concentration causing a half-maximal inhibition of control specific binding) are determined by non-linear regression analysis using Hill equation curve fitting. The inhibition constants (Ki) were calculated from the Cheng Prusoff equation Ki=IC50/(1+(L/KD)), where L equals the concentration of radioligand in the assay) and KD equals the affinity of the radioligand for the receptor. Affinities towards human D1 receptors were determined at the contract laboratory Cerep using the catalog reference assay no 803-1h. Membranes from CHO cells expressing human recombinant D1 receptors were used. 0.3 nM [^3H]-SCH23390 was used as radioligand and compounds were tested in a serial dilution concurrently with the reference compound SCH23390 in order to assess the assay suitability. Aliqouts were incubates at 22° C. for 60 min and bound radioactivity are measured with a liquid scintillation counter. Specific control binding to the D1 receptors was defined as the difference between the total binding determined without compound present and the non-specific binding determined in the presence of 1 μm SCH 23390.

5-HT2A receptors = biological target: T4, 5-HT2A receptors (Homo sapiens, UniProt P28223); test: Serotonin 5-HT2A efficacy assay (Ca2+ fluorescence, CHO cells); format: cell-based
T4 construct: expressed in transfected cells; host or cells: CHO cells
Description: 2 or 3 days before the experiment, CHO cells expressing 250 fmol/mg S-HT2A receptors are plated at a density sufficient to yield a mono-confluent layer on the day of the experiment. The cells are dye loaded (Ca^2+-kit from Molecular Devices and using Hank's balanced salt w/o phenol red, added 20 mM HEPES and pH adjusted to 7.4 with 2M NaOH as assaybuffer) for 60 minutes at 37° C. in a 5% CO2 incubator at 95% humidity. Lacer intensity is set to a suitable level to obtain basal values of approximately 8000-10000 fluorescence units. The variation in basal fluorescence should be less than 10%. EC50 values are assessed using increasing concentrations of test compound covering at least 3 decades. IC50 values are assessed challenging the same range of concentrations of test substances with EC85 of 5-HT. Test substances are added to the cells 5 minutes before the 5-HT. […] Maximum inhibition is the level of inhibition the curve reaches. It is expressed as the percentage inhibition at that level and used to distinguish full and partial antagonists.

[5] = QT-interval in the alpha-chloralose anaesthetised rabbit; format: in vivo
Description: The model described in the following was originally designed as a proarrhytmic model by Carlsson et al, [J Cardiovasc Pharmacol. 1990;16:276-85.] and has been modified to fit into screening set-up as described below under “animal preparation”.
Male rabbits (HsdIf:NZW, outbreed) weighing 2.0-2.8 kg were purchased from Harlan (The Netherlands). Individual body weights were measured and recorded on the day of experiment. […]
ECG, blood pressure and HR were continuously recorded on a Maclab 8/s using the Chart software v3.6.1 for the Macintosh computer. […] Effects on the electrocardiogram (PQ-, QRS-, QT-, QTc-intervals and heart rate) and mean arterial blood pressure (MAP) were recorded and measured electronically.

T3 sequence (P21728 whole entry): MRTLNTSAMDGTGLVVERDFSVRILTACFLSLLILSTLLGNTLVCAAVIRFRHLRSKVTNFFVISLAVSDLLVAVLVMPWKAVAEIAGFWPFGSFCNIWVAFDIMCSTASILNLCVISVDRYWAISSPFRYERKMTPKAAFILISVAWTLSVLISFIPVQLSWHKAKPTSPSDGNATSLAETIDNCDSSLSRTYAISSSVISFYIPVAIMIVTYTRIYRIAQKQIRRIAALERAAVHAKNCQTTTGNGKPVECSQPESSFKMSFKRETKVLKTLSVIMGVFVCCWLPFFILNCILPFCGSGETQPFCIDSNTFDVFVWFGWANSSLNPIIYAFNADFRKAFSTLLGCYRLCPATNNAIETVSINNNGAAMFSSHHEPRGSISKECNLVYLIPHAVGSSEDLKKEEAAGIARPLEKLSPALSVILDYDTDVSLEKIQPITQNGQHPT
T1 sequence (P10635 whole entry): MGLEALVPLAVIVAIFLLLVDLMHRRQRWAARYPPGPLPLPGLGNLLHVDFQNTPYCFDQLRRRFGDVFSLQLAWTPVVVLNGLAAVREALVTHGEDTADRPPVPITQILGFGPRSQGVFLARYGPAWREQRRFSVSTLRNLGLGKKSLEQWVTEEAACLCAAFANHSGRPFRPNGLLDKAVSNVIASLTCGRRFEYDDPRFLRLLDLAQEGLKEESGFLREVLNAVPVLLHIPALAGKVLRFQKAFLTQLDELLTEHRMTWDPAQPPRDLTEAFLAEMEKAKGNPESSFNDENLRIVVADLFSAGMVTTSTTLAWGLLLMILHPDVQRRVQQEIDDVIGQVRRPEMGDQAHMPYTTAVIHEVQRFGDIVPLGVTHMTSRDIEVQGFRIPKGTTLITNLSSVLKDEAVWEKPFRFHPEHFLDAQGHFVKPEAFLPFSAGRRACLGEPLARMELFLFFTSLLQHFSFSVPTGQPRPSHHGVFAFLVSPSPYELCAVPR
T2 sequence (P14416 whole entry): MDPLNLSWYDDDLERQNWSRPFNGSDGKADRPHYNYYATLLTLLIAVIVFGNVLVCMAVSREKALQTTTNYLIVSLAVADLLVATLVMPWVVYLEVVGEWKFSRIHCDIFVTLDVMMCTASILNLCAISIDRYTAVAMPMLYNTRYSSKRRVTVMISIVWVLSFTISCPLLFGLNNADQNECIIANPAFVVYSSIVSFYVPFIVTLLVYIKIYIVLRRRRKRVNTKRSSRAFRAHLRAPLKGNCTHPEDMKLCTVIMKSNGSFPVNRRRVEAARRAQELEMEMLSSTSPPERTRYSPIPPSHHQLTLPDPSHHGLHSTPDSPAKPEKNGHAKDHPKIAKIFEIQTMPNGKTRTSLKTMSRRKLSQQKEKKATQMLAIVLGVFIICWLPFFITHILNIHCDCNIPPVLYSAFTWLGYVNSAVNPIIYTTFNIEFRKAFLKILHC
T4 sequence (P28223 whole entry): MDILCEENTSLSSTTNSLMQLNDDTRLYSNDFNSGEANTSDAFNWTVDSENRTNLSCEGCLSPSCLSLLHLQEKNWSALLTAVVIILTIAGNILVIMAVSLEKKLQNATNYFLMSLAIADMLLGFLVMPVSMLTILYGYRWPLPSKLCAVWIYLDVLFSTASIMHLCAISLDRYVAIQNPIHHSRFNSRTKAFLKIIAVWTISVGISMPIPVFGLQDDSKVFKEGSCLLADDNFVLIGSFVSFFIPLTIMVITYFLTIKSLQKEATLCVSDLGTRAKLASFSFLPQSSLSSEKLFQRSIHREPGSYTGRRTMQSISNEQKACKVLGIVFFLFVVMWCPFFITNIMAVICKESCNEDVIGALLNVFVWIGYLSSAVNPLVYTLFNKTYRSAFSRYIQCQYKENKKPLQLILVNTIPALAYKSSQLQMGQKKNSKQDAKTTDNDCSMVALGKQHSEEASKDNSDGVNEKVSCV

Row | Structure (SMILES) | inhibition of CYP2D6 (human CYP2D6) | D1 and D2 antagonism in vivo (D1 and D2) | affinity for α1 adrenoceptors (α1 adrenoceptors) | D1/D2 antagonism in vitro (D1/D2) | 5-HT2 antagonism (5-HT2) | affinity for dopamine D2 receptors (human D2 receptor [1]) | affinity for alfa1 adrenoceptors (alpha-1 adrenoceptors) | functional activity at dopamine D1 receptors (human D1 receptors [2]) | functional activity at dopamine D2 receptors (human D2 receptor [3]) | affinity for dopamine D1 receptors (human D1 receptors [4]) | functional activity at serotonin 5-HT2a receptors (5-HT2A receptors) | prolonging effect on the QT-interval in the electrocardiogram (ECG) [5]
1 | CC1(C)CN([C@@H]2C[C@@H](c3ccccc3)c3ccc(Cl)cc32)CCN1 (racemic) [racemate of the compound of the present invention, trans-1-(6-chloro-3-phenylindan-1-yl)-3,3-dimethylpiperazine] | considerable more potent |  |  |  |  |  |  |  |  |  |  | 
2 | CN1CCN([C@@H]2C[C@@H](c3ccccc3)c3ccc(Cl)cc32)CC1(C)C [(−)-38] |  | equipotent as D1 and D2 antagonist | high affinity | potent D1/D2 antagonists showing some D1 selectivity | potent 5-H T2 antagonist |  |  |  |  |  |  | 
3 | CC1(C)CN([C@@H]2C[C@@H](c3ccccc3)c3ccc(Cl)cc32)CCN1 [Compound I, trans-1-((1R,3S)-6-chloro-3-phenylindan-1-yl)-3,3-dimethylpiperazine] | relatively weak inhibitor |  |  |  |  | high affinity | high affinity | antagonist | antagonist | high affinity | antagonist | relatively low prolonging effect
